“Also recorded” adds a separate entry of the source.
How the values were obtained:
[1] = test system: P2 receptors; conditions: cited from earlier work
[2] = biological target: Rat Parotid Ecto-ATPase; conditions: Dowd et al.; cited from earlier work
[3] = test system: thalamic slices; experiment: Extracellular adenosine by biosensor during HFS of thalamic slices; format: cell-based, mouse; conditions: 50 μM
Procedure: Thalamic slices (300 μm) from 14-18 day old mouse pups (FVB/NJ mice; Jackson Laboratory) were cut on a Vibratome (TPI) in an ice-cold cutting solution containing (in mM): 2.5 KCl, 1.25 NaH2PO4, 10 MgSO4, 5 CaCl2, 10 glucose, 26 NaHCO3, 230 sucrose and gassed with 5% CO2 and 95% O2. Slices were incubated for a minimum of 1 hr in a slice solution containing (in mM): 126 NaCl, 2.5 KCl, 1.25 NaH2PO4, 2 MgCl2, 2 CaCl2, 10 glucose, and 26 NaHCO3, pH 7.4, and gassed with 5% CO2 and 95% O2 at room temperature. The slices were transferred to a recording chamber (1.5 ml) perfused with aCSF at room temperature or 32° C. Whole-cell current clamp recordings were obtained using a 700B Multiclamp amplifier (Axon Instruments) (Jiang et al., “A Kainate Receptor Increases The Efficacy of Gabaergic Synapses,” Neuron 30:503-13 (2001); Tian et al., “An Astrocytic Basis of Epilepsy,” Nat Med 11:973-81 (2005), which are hereby incorporated by reference in their entirety). Concentric bipolar stimulating electrodes (FHC) were placed ˜100-400 μm ventromedial to the patched VL thalamic neuron. […] Adenosine measurements were detected using needle shaped electrode (Pt/Ir wire) biosensors (Sarissa Biomedical). […]

[4] = biological target: Ecto-ATPase; conditions: Drakulich et al.; cited from earlier work
[5] = biological target: Ecto-ATPase; conditions: Crack et al.; cited from earlier work
[6] = test system: thalamic neurons; experiment: HFS-induced depression of eEPSPs in thalamic slices, pharmacology; format: cell-based, mouse; conditions: 50 μM; HFS 250 μA, 100 μs, 5 sec, 20° C.

Structure (SMILES): CCN(CC)c1ncnc2c1ncn2C1OC(COP(=O)(O)OP(=O)(O)C(Br)(Br)P(=O)(O)O)C(O)C1O [ARL67156, 6-N,N-diethyl-D-beta, gamma-dibromomethyleneATP]
- effect on P2 receptors [1]: lack of or only has weak effect
- IC50 [2]: 120 µM
- HFS-induced increase in extracellular adenosine [3]: reduction in the HFS-induced adenosine increase
- HFS-induced increase in extracellular adenosine ([3]; listed as ARL): reduced adenosine increases during HFS; also recorded: did not completely block the rise in adenosine
- Ki [4]: 0.255 µM
- IC50 [5]: 4.6 µM
- effect on HFS-induced depression of eEPSPs (FIG. 3G) [6]: attenuated HFS-induced depression of eEPSPs
